Tests used:
[1] = target: T1, HLA A2.1 (UniProt P01901+P04439, D140Y/D185E/D98H/E176V/G131W/I119V/I121R/I166T/N151K/N90K/Q86G/Q94H/R138H/R169H); experiment: Competition assay: inhibition of influenza matrix peptide M1 (58-66) binding to A2.1, read as inhibition of lysis by an M1-specific CTL clone; design: species or system human; conditions: test peptide 10 μg vs influenza matrix peptide 0.1 μg; T2-A2.1/K^b target cells
T1 construct: expressed in transfected cells; host or cells: T2-A2.1/K^b cells
Description: Briefly, each test peptide (10 μg) was incubated with radiolabeled target cells (T2-A2.1/K^b, 10^6 target cells labeled with […] ^51Cr at 37° for 1.5 hours) in the presence of an influenza virus matrix protein (0.1 μg). The ability of these peptides to inhibit the binding of the influenza matrix protein peptide MI (58-66) to A2.1 was measured by inhibition of lysis by an M1 (58-66) specific, A2.1 restricted CTL clone.

[2] = system: MDA.MB231; experiment: Lysis of tumor cells by peptide-specific CTL; assay type: cell-based, human; conditions: 6 hours; for Killing of tumor (lysis): MDA.MB231, breast, A2 +, Her-2 +, no cytokine preincubation; for Killing of tumor (lysis) + CYT: MDA.MB231, tumor preincubated 24 hours with 20 ng/ml γ-IFN and 3 ng/ml TNF-α
[3] = system: MCF-7; experiment: Lysis of tumor cells by peptide-specific CTL; assay type: cell-based, human; conditions: 6 hours; for Killing of tumor (lysis): MCF-7, breast, A2 +, Her-2 +, no cytokine preincubation; for Killing of tumor (lysis) + CYT: MCF-7, tumor preincubated 24 hours with 20 ng/ml γ-IFN and 3 ng/ml TNF-α
[4] = system: BT549; experiment: Lysis of tumor cells by peptide-specific CTL; assay type: cell-based, human; conditions: 6 hours; for Killing of tumor (lysis): BT549, breast, A2 +, Her-2 +, no cytokine preincubation; for Killing of tumor (lysis) + CYT: BT549, tumor preincubated 24 hours with 20 ng/ml γ-IFN and 3 ng/ml TNF-α
[5] = system: SAOS.175; experiment: Lysis of tumor cells by peptide-specific CTL; assay type: cell-based, human; conditions: 6 hours; for Killing of tumor (lysis): SAOS.175, osteosarcoma, A2 +, Her-2 +, no cytokine preincubation; for Killing of tumor (lysis) + CYT: SAOS.175, tumor preincubated 24 hours with 20 ng/ml γ-IFN and 3 ng/ml TNF-α
[6] = system: U2-OS; experiment: Lysis of tumor cells by peptide-specific CTL; assay type: cell-based, human; conditions: 6 hours; for Killing of tumor (lysis) + CYT: tumor preincubated 24 hours with 20 ng/ml γ-IFN and 3 ng/ml TNF-α; for Killing of tumor (lysis): osteosarcoma, A2 +, Her-2 +, no cytokine preincubation
[7] = system: SW480; experiment: Lysis of tumor cells by peptide-specific CTL; assay type: cell-based, human; conditions: 6 hours; for Killing of tumor (lysis): SW480, colon, A2 +, Her-2 +, no cytokine preincubation; for Killing of tumor (lysis) + CYT: SW480, tumor preincubated 24 hours with 20 ng/ml γ-IFN and 3 ng/ml TNF-α
[8] = system: OVCAR-5; experiment: Lysis of tumor cells by peptide-specific CTL; assay type: cell-based, human; conditions: 6 hours; for Killing of tumor (lysis): OVCAR-5, ovarian, A2 +, Her-2 +, no cytokine preincubation; for Killing of tumor (lysis) + CYT: OVCAR-5, tumor preincubated 24 hours with 20 ng/ml γ-IFN and 3 ng/ml TNF-α
[9] = system: T98G; experiment: Lysis of tumor cells by peptide-specific CTL; assay type: cell-based, human; conditions: 6 hours; for Killing of tumor (lysis) + CYT: tumor preincubated 24 hours with 20 ng/ml γ-IFN and 3 ng/ml TNF-α; for Killing of tumor (lysis): glioblastoma, A2 +, Her-2 +, no cytokine preincubation
[10] = system: MALME-3M; experiment: Lysis of tumor cells by peptide-specific CTL; assay type: cell-based, human; conditions: 6 hours; for Killing of tumor (lysis) + CYT: tumor preincubated 24 hours with 20 ng/ml γ-IFN and 3 ng/ml TNF-α; for Killing of tumor (lysis): melanoma, A2 +, Her-2 +, no cytokine preincubation
[11] = system: SKMEL-5; experiment: Lysis of tumor cells by peptide-specific CTL; assay type: cell-based, human; conditions: 6 hours; for Killing of tumor (lysis): SKMEL-5, melanoma, A2 +, Her-2 +, no cytokine preincubation; for Killing of tumor (lysis) + CYT: SKMEL-5, tumor preincubated 24 hours with 20 ng/ml γ-IFN and 3 ng/ml TNF-α
[12] = system: NCl.H1355; experiment: Lysis of tumor cells by peptide-specific CTL; assay type: cell-based, human; conditions: 6 hours; for Killing of tumor (lysis): NCl.H1355, lung, A2 +, Her-2 +, no cytokine preincubation; for Killing of tumor (lysis) + CYT: NCl.H1355, tumor preincubated 24 hours with 20 ng/ml γ-IFN and 3 ng/ml TNF-α
[13] = system: Hep-G2; experiment: Lysis of tumor cells by peptide-specific CTL; assay type: cell-based, human; conditions: 6 hours; for Killing of tumor (lysis): Hep-G2, hepatoma, A2 +, Her-2 +, no cytokine preincubation; for Killing of tumor (lysis) + CYT: Hep-G2, tumor preincubated 24 hours with 20 ng/ml γ-IFN and 3 ng/ml TNF-α
[14] = system: CASKI; experiment: Lysis of tumor cells by peptide-specific CTL; assay type: cell-based, human; conditions: 6 hours; for Killing of tumor (lysis) + CYT: tumor preincubated 24 hours with 20 ng/ml γ-IFN and 3 ng/ml TNF-α; for Killing of tumor (lysis): cervix, A2 +, Her-2 +, no cytokine preincubation
[15] = system: U87G; experiment: Lysis of tumor cells by peptide-specific CTL; assay type: cell-based, human; conditions: 6 hours; for Killing of tumor (lysis) + CYT: tumor preincubated 24 hours with 20 ng/ml γ-IFN and 3 ng/ml TNF-α; for Killing of tumor (lysis): glioblastoma, A2 +, Her-2 −, no cytokine preincubation
[16] = system: ST486; experiment: Lysis of tumor cells by peptide-specific CTL; assay type: cell-based, human; conditions: 6 hours; for Killing of tumor (lysis): ST486, lymphoma, A2 +, Her-2 −, no cytokine preincubation; for Killing of tumor (lysis) + CYT: ST486, tumor preincubated 24 hours with 20 ng/ml γ-IFN and 3 ng/ml TNF-α
[17] = system: LG-2; experiment: Lysis of tumor cells by peptide-specific CTL; assay type: cell-based, human; conditions: 6 hours; for Killing of tumor (lysis): LG-2, EBV-trans., A2 +, Her-2 −, no cytokine preincubation; for Killing of tumor (lysis) + CYT: LG-2, tumor preincubated 24 hours with 20 ng/ml γ-IFN and 3 ng/ml TNF-α
[18] = system: SV80; experiment: Lysis of tumor cells by peptide-specific CTL; assay type: cell-based, human; conditions: 6 hours; for Killing of tumor (lysis): SV80, fibroblast, A2 +, Her-2 −, no cytokine preincubation; for Killing of tumor (lysis) + CYT: SV80, tumor preincubated 24 hours with 20 ng/ml γ-IFN and 3 ng/ml TNF-α
[19] = system: JY; experiment: Lysis of tumor cells by peptide-specific CTL; assay type: cell-based, human; conditions: 6 hours; for Killing of tumor (lysis) + CYT: tumor preincubated 24 hours with 20 ng/ml γ-IFN and 3 ng/ml TNF-α; for Killing of tumor (lysis): lymphoma, A2 +, Her-2 −, no cytokine preincubation
[20] = system: MDA.MB435; experiment: Lysis of tumor cells by peptide-specific CTL; assay type: cell-based, human; conditions: 6 hours; for Killing of tumor (lysis): MDA.MB435, breast, A2 −, Her-2 +, no cytokine preincubation; for Killing of tumor (lysis) + CYT: MDA.MB435, tumor preincubated 24 hours with 20 ng/ml γ-IFN and 3 ng/ml TNF-α

## LVSEFSRMA [H22, Her-2/neu peptide 972-980]
[1]
  % INHIBITION: 14%

## DIDETEYHA [H18, Her-2/neu peptide 871-879]
[1]
  % INHIBITION: 37%

## TLSPGKNGV [H24, Her-2/neu peptide 1172-1180]
[1]
  % INHIBITION: 57%

## VLVKSPNHV [H17, Her-2/neu peptide 851-859]
[1]
  % INHIBITION: 12%

## KLVGKLNWA [HIV-9K, HIV POL peptide, known to be immunogenic, used as a control, reference compound]
[2]
  Killing of tumor (lysis): 3%
  Killing of tumor (lysis) + CYT: 14
[3]
  Killing of tumor (lysis): 3%
  Killing of tumor (lysis) + CYT: 7
[4]
  Killing of tumor (lysis): 2%
  Killing of tumor (lysis) + CYT: 15
[5]
  Killing of tumor (lysis): 18%
  Killing of tumor (lysis) + CYT: 11
[6]
  Killing of tumor (lysis) + CYT: 24
  Killing of tumor (lysis): 18%
[7]
  Killing of tumor (lysis): 1%
  Killing of tumor (lysis) + CYT: 4
[8]
  Killing of tumor (lysis): 10%
  Killing of tumor (lysis) + CYT: 12
[9]
  Killing of tumor (lysis) + CYT: 13
  Killing of tumor (lysis): 9%
[10]
  Killing of tumor (lysis) + CYT: 1
  Killing of tumor (lysis): 2%
[11]
  Killing of tumor (lysis): 5%
  Killing of tumor (lysis) + CYT: 4
[12]
  Killing of tumor (lysis): 7%
  Killing of tumor (lysis) + CYT: 25
[13]
  Killing of tumor (lysis): 1%
  Killing of tumor (lysis) + CYT: 8
[14]
  Killing of tumor (lysis) + CYT: 11
  Killing of tumor (lysis): 8%
[15]
  Killing of tumor (lysis) + CYT: 1
  Killing of tumor (lysis): 5%
[16]
  Killing of tumor (lysis): 1%
  Killing of tumor (lysis) + CYT: 1
[17]
  Killing of tumor (lysis): 1%
  Killing of tumor (lysis) + CYT: 1
[18]
  Killing of tumor (lysis): 2%
  Killing of tumor (lysis) + CYT: 2
[19]
  Killing of tumor (lysis) + CYT: 1
  Killing of tumor (lysis): 2%
[20]
  Killing of tumor (lysis): 4%
  Killing of tumor (lysis) + CYT: 3

## RLLQETELV [H13]
[1]
  % INHIBITION: 56%

## DLVDAEEYL [H23, Her-2/neu peptide 1016-1024]
[1]
  % INHIBITION: 35%

## KIPVAIKVL [H14, Her-2/neu peptide 747-755]
[1]
  % INHIBITION: 35%

## QLMPYGCLL [H16, Her-2/neu peptide 799-807]
[1]
  % INHIBITION: 50%

## HLYQGOQW [H12]
[1]
  % INHIBITION: 15%

## TLQGLGISWL [H6, Her-2/neu peptide 444-453]
[1]
  % INHIBITION: 56%

## VMAGVGSPYV [H7]
[1]
  % INHIBITION: 55%
[2]
  Killing of tumor (lysis): 26%
  Killing of tumor (lysis) + CYT: 89
[3]
  Killing of tumor (lysis): 7%
  Killing of tumor (lysis) + CYT: 40
[4]
  Killing of tumor (lysis): 2%
  Killing of tumor (lysis) + CYT: 36
[5]
  Killing of tumor (lysis): 27%
  Killing of tumor (lysis) + CYT: 35
[6]
  Killing of tumor (lysis) + CYT: 62
  Killing of tumor (lysis): 30%
[7]
  Killing of tumor (lysis): 2%
  Killing of tumor (lysis) + CYT: 17
[8]
  Killing of tumor (lysis): 13%
  Killing of tumor (lysis) + CYT: 23
[9]
  Killing of tumor (lysis) + CYT: 93
  Killing of tumor (lysis): 29%
[10]
  Killing of tumor (lysis) + CYT: 14
  Killing of tumor (lysis): 4%
[11]
  Killing of tumor (lysis): 16%
  Killing of tumor (lysis) + CYT: 40
[12]
  Killing of tumor (lysis): 13%
  Killing of tumor (lysis) + CYT: 62
[13]
  Killing of tumor (lysis): 4%
  Killing of tumor (lysis) + CYT: 29
[14]
  Killing of tumor (lysis) + CYT: 20
  Killing of tumor (lysis): 9%
[15]
  Killing of tumor (lysis) + CYT: 1
  Killing of tumor (lysis): 1%
[16]
  Killing of tumor (lysis): 5%
  Killing of tumor (lysis) + CYT: 8
[17]
  Killing of tumor (lysis): 1%
  Killing of tumor (lysis) + CYT: 3
[18]
  Killing of tumor (lysis): 2%
  Killing of tumor (lysis) + CYT: 2
[19]
  Killing of tumor (lysis) + CYT: 2
  Killing of tumor (lysis): 4%
[20]
  Killing of tumor (lysis): 1%
  Killing of tumor (lysis) + CYT: 1

## VLQGLPREYV [H8, Her-2/neu peptide 546-555]
[1]
  % INHIBITION: 43%

## DLLEKGERL [H19, Her-2/neu peptide 933-941]
[1]
  % INHIBITION: 36%

## ELVSEFSRMA [H21, Her-2/neu peptide 971-980]
[1]
  % INHIBITION: 25%

## ELVSEFSRM [H20, Her-2/neu peptide 971-979]
[1]
  % INHIBITION: 5%

From patent US20010007152A1, “RECOMBINANT CONSTRUCTS ENCODING T CELL RECEPTORS SPECIFIC FOR HUMAN HLA-RESTRICTED TUMOR ANTIGENS” (priority 1996, published 2001)
